“Also recorded” adds a separate entry of the source. Marks after values point to notes of the source that are not given here.
Tested on: TAC mice
Experiment: Transverse aortic constriction (TAC) in mice, Protocol 1: febuxostat for 8 days beginning ~60 min after TAC
Format: in vivo
Excerpt: • Mice. Male C57/BL6 mice at 8-9 weeks of age were purchased from Jackson Laboratories (Bar Harbor, Me.) for use in this study. Mice were housed in an air-conditioned room with a 12-hour:12-hour light-dark cycle, received standard mouse chow, and drank tap water. This study was approved by the Institutional Animal Care and Use Committee of the University of Minnesota. • Experimental Protocol 1. This protocol was designed to determine whether febuxostat (2-[3-cyano-4-(2-methylpropoxy)phenyl]-4-methylthiazole-5-carboxylic acid) treatment, beginning immediately after the onset of acute pressure overload, could protect against transverse aortic constriction (TAC)-induced left ventricular (LV) hypertrophy, dysfunction and mortality. Three treatment groups were included (See Table 1, below): sham-operated mice (n=20), TAC mice treated with vehicle (0.5% methylcellulose) (n=30), and TAC mice treated with febuxostat (suspension in 0.5% methylcellulose) (n=30). To generate LV hypertrophy in a short time period with a significant incidence of cardiac mortality, TAC was created by ligating the transverse aorta against a 27 G needle to create severe LV pressure overload. Since mice tend to take in less water and food during the first 1-3 days after the TAC procedure, febuxostat (5 mg/kg/day in 250 μl vehicle) or vehicle (250 μl) was administered daily by oral gavage for a total of 8 days, with the first dose administered on the day of the surgery after the animal awoke from anesthesia (˜60 min after the TAC procedure). On the eighth day, LV function was assessed by echocardiography approximately 1 hour after the last febuxostat or vehicle dose. Approximately 3 hours after echocardiographic evaluation (4 hours after the last febuxostat or vehicle dose), the mice were weighed and blood samples collected. The animals were euthanized and the heart and lungs excised; the right and left atria were trimmed away, and the ventricles and lungs were weighed. Tissue from the left ventricle was used for histological evaluation and Western blots. • Experimental Protocol 2. This protocol was designed to determine whether administration of febuxostat (FBS) or allopurinol (AL) beginning after the onset of cardiac hypertrophy, LV dysfunction and heart failure could exert a protective effect. For this protocol, mice subjected to TAC (using a 26 gauge (G) needle to generate moderate TAC) or sham surgery were divided into six experimental groups as described in Table 1, below. Beginning seven days after TAC, animals were treated with vehicle (0.01 mg/ml NaCl, equivalent salt content as in the FBS drinking water), FBS (0.05 mg/ml) or AL (0.15 mg/ml) in drinking water for three weeks. Following three weeks of treatment, ventricular function was assessed by echocardiography. Blood samples and cardiac tissue were collected during 2-3 hours after the echocardiographic evaluation as described previously in Protocol 1.
• Minimally Invasive TAC Procedure. TAC was performed using the minimally invasive suprasternal approach described by Hu et al. (See, Hu et al., Am. J. Physiol. Heart Circ. Physiol., 3:H1261-9 (2003)). Mice were anesthetized with a mixture of 80 mg/kg ketamine and 30 mg/kg xylazine intraperitoneally. A horizontal incision was made at the level of the suprasternal notch to allow direct visualization of the transverse aorta without entering the pleural space. With the aid of a dissecting microscope, aortic constriction was performed by ligating the aorta between the right innominate artery and the left carotid artery over a 27 G) needle using 5-0 silk suture. The needle was immediately removed after ligation, leaving the aortic constriction in place. The incision was closed and the animals were allowed to recover. Analgesia was provided before the mice awoke from anesthesia. Sham surgery utilized the same procedure but without aortic ligation. • Echocardiography.

[1] = 5 mg/kg/day oral gavage for 8 days from ~60 min after TAC
[2] = 8 days, versus TAC vehicle, listed as FBS

**Q.** What does the source list for `Cc1nc(-c2ccc(OCC(C)C)c(C#N)c2)sc1C(=O)O` [febuxostat, 2-[3-cyano-4-(2-methylpropoxy)phenyl]-4-methylthiazole-5-carboxylic acid]?
**A.** Anterior wall thickness at end-diastole [1]: 0.84 ± 0.02 mm; Anterior wall thickness at end-systole [1]: 1.10 ± 0.04 mm; LV fractional shortening [1]: 31.5 ± 2.2*^,# %; Lung weight [1]: 163 ± 16 mg; Posterior wall thickness at end-diastole [1]: 0.83 ± 0.02*^,# mm; Posterior wall thickness at end-systole [1]: 1.10 ± 0.03 mm; Ventricle weight [1]: 138 ± 7.0*^,# mg; Cardiac myocyte diameter (8 days): 16.3±0.3 μm; Mortality (mice died) (8 days): 14 out of 30; Myocardial fibrosis (8 days): 8.3±2. %; TAC-induced left ventricular (LV) hypertrophy (8 days, FIG. 1A): significantly attenuated; TAC-induced pulmonary congestion (8 days, FIG. 1B): tended to decrease; TAC-induced cardiac sudden death / mortality (effect) (8 days, FIG. 1C): not affected; also recorded: no effect; TAC-induced increase of myocardial ANP (8 days, Western blot of LV): significantly attenuated; TAC-induced increase of myocardial collagen III (8 days, Western blot of LV): significantly attenuated; TAC-induced increase of myocardial nitrotyrosine (8 days, Western blot of LV): significantly blunted; TAC-induced increase of myocardial pre-collagen I (8 days, Western blot of LV): significantly attenuated; TAC-induced increase of p-Erk Thr202/204 (8 days, Western blot of LV): significantly attenuated; TAC-induced increase of p-mTOR Ser2488 (8 days, Western blot of LV): significantly attenuated; TAC-induced increase of t-Erk (8 days, Western blot of LV): significantly attenuated; TAC-induced increase of myocardial nitrotyrosine (8 days, Western blot of LV, listed as FBS): significantly attenuated; Decrease of pulmonary congestion (ratio of lung weight to body weight) (8 days, versus TAC vehicle): about 18%; LV diameter at end-diastole (8 days, versus TAC vehicle): no significant effect; Plasma uric acid (8 days, versus TAC vehicle): significantly decreased; Reduction of ventricular hypertrophy (ratio of ventricular mass to body weight) (8 days, versus TAC vehicle): approximately 15%; TAC-induced decrease of LV ejection fraction (8 days, versus TAC vehicle): attenuated; TAC-induced decrease of LV fractional shortening (8 days, versus TAC vehicle): attenuated; TAC-induced increase of LV diameter at end-systole (8 days, versus TAC vehicle): trend toward attenuating; TAC-induced increase of LV end-diastolic wall thickness (8 days, versus TAC vehicle): significantly attenuated; LV diameter at end-diastole [2]: not changed; TAC-induced decrease of LV ejection fraction [2]: significantly attenuated; TAC-induced increase of LV diameter at end-systole [2]: trend toward attenuation

From patent publication US20100311756A1, “METHODS FOR DELAYING THE PROGRESSION OF AT LEAST ONE OF CARDIAC HYPERTROPHY, CARDIAC REMODELING OR LEFT VENTRICULAR FUNCTION OR THE ONSET OF HEART FAILURE IN SUBJECTS IN NEED OF TREATMENT THEREOF” (TAKEDA PHARMACEUTICALS NORTH AMERICA, INC., priority 2009, published 2010)
